# From paper PMC12348798, “Synthesis and Molecular Modeling of Antioxidant and Anti-Inflammatory Five-Membered Heterocycle–Cinnamic Acid Hybrids” (Molecules, 2025)
# System: not listed separately
# Experiment: Inhibition of AAPH-induced linoleic acid peroxidation
# Settings: not given
# Protocol: In the lipid peroxidation assay, 2,2′-azobis(2-methylpropionamidine)dihydrochloride (AAPH) was used as a peroxyl radical inducer, and sodium linoleate as a substrate. The formation of 13-hydroperoxy-linoleic acid from linoleic acid was monitored by measuring absorbance at 234 nm. Trolox was used as a reference compound.
# (§1) A 10 mM stock solution of the synthesized compounds was prepared in DMSO for the vitro assays. Serial dilutions were carried out to determine the IC50 values. Each experiment was conducted six times, with standard deviations remaining below 10% of the mean.
# AAPH was employed as an inducer of alkyl peroxyl radicals. In this experiment, the compounds’ ability to inhibit the oxidation of linoleic acid by alkyl peroxyl radicals was assessed by monitoring the change in absorbance at 234 nm due to the formation of 13-hydroperoxy-linoleic acid. Trolox was used as the reference compound [59, 68].
row,Structure (SMILES),AAPH % Inhibition 100 μM
1,"C(=C\c1nnc(Nc2ccccc2)o1)/c1ccccc1 [Compound 5a, (E)-N-Phenyl-5-styryl-1,3,4-oxadiazol-2-amine]",17%
2,"Sc1nnc(/C=C/c2ccc3c(c2)OCO3)n1-c1ccccc1 [Compound 4f, (E)-5-(2-(Benzo[d][1,3]dioxol-5-yl)vinyl)-4-phenyl-4H-1,2,4-triazole-3-thiol]",71%
3,"O=C(/C=C/c1ccc(OCc2ccc(Br)cc2)cc1)NNC(=S)Nc1ccccc1 [Compound 3g, (E)-2-(3-(4-((4-Bromobenzyl)oxy)phenyl)acryloyl)-N-phenylhydrazine-1-carbothioamide]",91%
4,"Sc1nnc(/C=C/c2ccc(Cl)cc2)n1-c1ccccc1 [Compound 4b, (E)-5-(4-Chlorostyryl)-4-phenyl-4H-1,2,4-triazole-3-thiol]",34%
5,"CC(=O)Oc1ccc(/C=C/c2nnc(S)n2-c2ccccc2)cc1 [Compound 4e, (E)-4-(2-(5-Mercapto-4-phenyl-4H-1,2,4-triazol-3-yl)vinyl)phenyl acetate]",87%
6,"Sc1nnc(/C=C/c2ccccc2)n1-c1ccccc1 [Compound 4a, (E)-4-Phenyl-5-styryl-4H-1,2,4-triazole-3-thiol]",26%
7,"Sc1nnc(/C=C/c2ccc(OCc3ccc(Br)cc3)cc2)n1-c1ccccc1 [Compound 4g, (E)-5-(4-((4-Bromobenzyl)oxy)styryl)-4-phenyl-4H-1,2,4-triazole-3-thiol]",50%
8,"O=C(/C=C/c1ccc2c(c1)OCO2)NNC(=S)Nc1ccccc1 [Compound 3f, (E)-2-(3-(Benzo[d][1,3]dioxol-5-yl)acryloyl)-N-phenylhydrazine-1-carbothioamide]",58%
9,"Sc1nnc(/C=C/c2ccc(Br)cc2)n1-c1ccccc1 [Compound 4d, (E)-5-(4-Bromostyryl)-4-phenyl-4H-1,2,4-triazole-3-thiol]",20%
10,"O=C(/C=C/c1ccc(F)cc1)NNC(=S)Nc1ccccc1 [Compound 3c, (E)-2-(3-(4-Fluorophenyl)acryloyl)-N-phenylhydrazine-1-carbothioamide]",12%

# Target: T1, soybean lipoxygenase (Glycine max, UniProt P08170)
# T1 construct: purchased Sigma Aldrich, Merck KGaA, Darmstadt, Germany
# T1 sequence (P08170 1-839): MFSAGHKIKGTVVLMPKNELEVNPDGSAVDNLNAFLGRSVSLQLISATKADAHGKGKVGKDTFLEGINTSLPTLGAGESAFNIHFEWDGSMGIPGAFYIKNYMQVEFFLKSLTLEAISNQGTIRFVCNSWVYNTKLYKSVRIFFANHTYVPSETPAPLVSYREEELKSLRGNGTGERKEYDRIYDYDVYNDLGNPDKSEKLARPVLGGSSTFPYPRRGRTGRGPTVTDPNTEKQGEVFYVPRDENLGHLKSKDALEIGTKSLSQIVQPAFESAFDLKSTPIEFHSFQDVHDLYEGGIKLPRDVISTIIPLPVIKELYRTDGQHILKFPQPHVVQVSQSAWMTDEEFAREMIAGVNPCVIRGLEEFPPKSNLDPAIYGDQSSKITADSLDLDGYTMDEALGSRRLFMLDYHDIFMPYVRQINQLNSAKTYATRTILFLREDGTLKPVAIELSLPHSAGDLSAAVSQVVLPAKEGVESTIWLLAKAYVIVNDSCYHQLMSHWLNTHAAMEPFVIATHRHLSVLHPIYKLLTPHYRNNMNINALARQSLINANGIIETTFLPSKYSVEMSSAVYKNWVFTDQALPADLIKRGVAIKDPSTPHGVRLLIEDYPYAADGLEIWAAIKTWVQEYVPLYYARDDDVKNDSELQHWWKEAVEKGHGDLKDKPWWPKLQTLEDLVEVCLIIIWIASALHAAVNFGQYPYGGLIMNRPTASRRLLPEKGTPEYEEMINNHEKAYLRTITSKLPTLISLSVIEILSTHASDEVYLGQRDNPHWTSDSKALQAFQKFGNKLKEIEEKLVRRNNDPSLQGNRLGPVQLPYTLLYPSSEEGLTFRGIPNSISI
# Experiment: Inhibition of soybean lipoxygenase
# Assay type: biochemical
# Settings: read-out: LOX % Inhibition 100 μM
# Protocol: Lipoxygenase (LOX) is responsible for the formation of leukotrienes, important inflammatory mediators. Due to its important role, it is considered as a therapeutic target for inflammatory diseases. Soybean lipoxygenase (LOX), a plant-derived enzyme, has been extensively utilized as a model for investigating the functional and structural properties of the lipoxygenase family, due to its significant homology with human 5-LOX [35, 61].
# A 10 mM stock solution of the synthesized compounds was prepared in DMSO for the vitro assays. Serial dilutions were carried out to determine the IC50 values.
# Sodium linoleate (0.1 mM), 0.2 mL of soybean lipoxygenase solution (1/9 × 10^−4 w/v in saline), and 10 μL of the test compound stock solution (10 mM in DMSO) were incubated at room temperature. Absorbance was recorded at 234 nm while monitoring the formation of 13-hydroperoxy-linoleic acid. […] To determine IC50 values, various concentrations of the test compounds were applied.
row,inhibition at 100 µM,Structure (SMILES)
1,45%,"O=C(/C=C/c1ccc(F)cc1)NNC(=S)Nc1ccccc1 [Compound 3c, (E)-2-(3-(4-Fluorophenyl)acryloyl)-N-phenylhydrazine-1-carbothioamide]"

# Same assay, conditions: soybean lipoxygenase, sodium linoleate substrate; read-out: LOX IC50
row,IC50,Structure (SMILES)
1,32.5 µM,"C(=C\c1nnc(Nc2ccccc2)o1)/c1ccccc1 [Compound 5a, (E)-N-Phenyl-5-styryl-1,3,4-oxadiazol-2-amine]"
2,7.5 µM,"Sc1nnc(/C=C/c2ccc3c(c2)OCO3)n1-c1ccccc1 [Compound 4f, (E)-5-(2-(Benzo[d][1,3]dioxol-5-yl)vinyl)-4-phenyl-4H-1,2,4-triazole-3-thiol]"
3,4.5 µM,"Sc1nnc(/C=C/c2ccc(Cl)cc2)n1-c1ccccc1 [Compound 4b, (E)-5-(4-Chlorostyryl)-4-phenyl-4H-1,2,4-triazole-3-thiol]"
4,5.5 µM,"CC(=O)Oc1ccc(/C=C/c2nnc(S)n2-c2ccccc2)cc1 [Compound 4e, (E)-4-(2-(5-Mercapto-4-phenyl-4H-1,2,4-triazol-3-yl)vinyl)phenyl acetate]"
5,7.5 µM,"Sc1nnc(/C=C/c2ccccc2)n1-c1ccccc1 [Compound 4a, (E)-4-Phenyl-5-styryl-4H-1,2,4-triazole-3-thiol]"
6,4.5 µM,"Sc1nnc(/C=C/c2ccc(OCc3ccc(Br)cc3)cc2)n1-c1ccccc1 [Compound 4g, (E)-5-(4-((4-Bromobenzyl)oxy)styryl)-4-phenyl-4H-1,2,4-triazole-3-thiol]"
7,97.5 µM,"Sc1nnc(/C=C/c2ccc(Br)cc2)n1-c1ccccc1 [Compound 4d, (E)-5-(4-Bromostyryl)-4-phenyl-4H-1,2,4-triazole-3-thiol]"

# Second part, the molecule before the results:
row,Structure (SMILES),IC50
1,"O=C(/C=C/c1ccc(OCc2ccc(Br)cc2)cc1)NNC(=S)Nc1ccccc1 [Compound 3g, (E)-2-(3-(4-((4-Bromobenzyl)oxy)phenyl)acryloyl)-N-phenylhydrazine-1-carbothioamide]",10 µM
2,"O=C(/C=C/c1ccc2c(c1)OCO2)NNC(=S)Nc1ccccc1 [Compound 3f, (E)-2-(3-(Benzo[d][1,3]dioxol-5-yl)acryloyl)-N-phenylhydrazine-1-carbothioamide]",35 µM

# System: not listed separately
# Experiment: Interaction with the stable free radical DPPH (reducing activity)
# Settings: 20 min
# Protocol: Firstly, the synthesized derivatives were evaluated for their ability to interact with the stable free radical 2,2-diphenyl-1-picrylhydrazyl (DPPH) at a concentration of 100 μM after 20 and 60 min (Table 2). DPPH is a valuable tool for studying antioxidant activity. Its reactivity with lipophilic compounds is not solely determined by their lipophilicity. The specific chemical structure of the antioxidant, the solvent used, and other factors can all influence the interaction with DPPH. However, lipophilic compounds tend to be well dissolved in organic solvents reacting with DPPH. Based on previous findings, the antioxidant activity is related with lipophilicity.
# as §1
# An in vitro study was conducted as previously described by our group. Free radical scavenging activity was evaluated by measuring absorbance at 517 nm after 20 and 60 min at room temperature.
row,Structure (SMILES),RA % 100 μM 20 min
1,"Sc1nnc(/C=C/c2ccc3c(c2)OCO3)n1-c1ccccc1 [Compound 4f, (E)-5-(2-(Benzo[d][1,3]dioxol-5-yl)vinyl)-4-phenyl-4H-1,2,4-triazole-3-thiol]",87%
2,"O=C(/C=C/c1ccc(OCc2ccc(Br)cc2)cc1)NNC(=S)Nc1ccccc1 [Compound 3g, (E)-2-(3-(4-((4-Bromobenzyl)oxy)phenyl)acryloyl)-N-phenylhydrazine-1-carbothioamide]",98%
3,"Sc1nnc(/C=C/c2ccc(Cl)cc2)n1-c1ccccc1 [Compound 4b, (E)-5-(4-Chlorostyryl)-4-phenyl-4H-1,2,4-triazole-3-thiol]",33%
4,"CC(=O)Oc1ccc(/C=C/c2nnc(S)n2-c2ccccc2)cc1 [Compound 4e, (E)-4-(2-(5-Mercapto-4-phenyl-4H-1,2,4-triazol-3-yl)vinyl)phenyl acetate]",96%
5,"Sc1nnc(/C=C/c2ccccc2)n1-c1ccccc1 [Compound 4a, (E)-4-Phenyl-5-styryl-4H-1,2,4-triazole-3-thiol]",74%
6,"Sc1nnc(/C=C/c2ccc(OCc3ccc(Br)cc3)cc2)n1-c1ccccc1 [Compound 4g, (E)-5-(4-((4-Bromobenzyl)oxy)styryl)-4-phenyl-4H-1,2,4-triazole-3-thiol]",97%
7,"O=C(/C=C/c1ccc2c(c1)OCO2)NNC(=S)Nc1ccccc1 [Compound 3f, (E)-2-(3-(Benzo[d][1,3]dioxol-5-yl)acryloyl)-N-phenylhydrazine-1-carbothioamide]",70%
8,"Sc1nnc(/C=C/c2ccc(Br)cc2)n1-c1ccccc1 [Compound 4d, (E)-5-(4-Bromostyryl)-4-phenyl-4H-1,2,4-triazole-3-thiol]",68%
9,"O=C(/C=C/c1ccc(F)cc1)NNC(=S)Nc1ccccc1 [Compound 3c, (E)-2-(3-(4-Fluorophenyl)acryloyl)-N-phenylhydrazine-1-carbothioamide]",90%

# Same assay, conditions: 60 min
row,Structure (SMILES),RA % 100 μM 60 min
1,"C(=C\c1nnc(Nc2ccccc2)o1)/c1ccccc1 [Compound 5a, (E)-N-Phenyl-5-styryl-1,3,4-oxadiazol-2-amine]",7%
2,"Sc1nnc(/C=C/c2ccc3c(c2)OCO3)n1-c1ccccc1 [Compound 4f, (E)-5-(2-(Benzo[d][1,3]dioxol-5-yl)vinyl)-4-phenyl-4H-1,2,4-triazole-3-thiol]",76%
3,"O=C(/C=C/c1ccc(OCc2ccc(Br)cc2)cc1)NNC(=S)Nc1ccccc1 [Compound 3g, (E)-2-(3-(4-((4-Bromobenzyl)oxy)phenyl)acryloyl)-N-phenylhydrazine-1-carbothioamide]",87%
4,"Sc1nnc(/C=C/c2ccc(Cl)cc2)n1-c1ccccc1 [Compound 4b, (E)-5-(4-Chlorostyryl)-4-phenyl-4H-1,2,4-triazole-3-thiol]",88%
5,"CC(=O)Oc1ccc(/C=C/c2nnc(S)n2-c2ccccc2)cc1 [Compound 4e, (E)-4-(2-(5-Mercapto-4-phenyl-4H-1,2,4-triazol-3-yl)vinyl)phenyl acetate]",93%
6,"Sc1nnc(/C=C/c2ccccc2)n1-c1ccccc1 [Compound 4a, (E)-4-Phenyl-5-styryl-4H-1,2,4-triazole-3-thiol]",93%
7,"Sc1nnc(/C=C/c2ccc(OCc3ccc(Br)cc3)cc2)n1-c1ccccc1 [Compound 4g, (E)-5-(4-((4-Bromobenzyl)oxy)styryl)-4-phenyl-4H-1,2,4-triazole-3-thiol]",92%
8,"O=C(/C=C/c1ccc2c(c1)OCO2)NNC(=S)Nc1ccccc1 [Compound 3f, (E)-2-(3-(Benzo[d][1,3]dioxol-5-yl)acryloyl)-N-phenylhydrazine-1-carbothioamide]",89%
9,"Sc1nnc(/C=C/c2ccc(Br)cc2)n1-c1ccccc1 [Compound 4d, (E)-5-(4-Bromostyryl)-4-phenyl-4H-1,2,4-triazole-3-thiol]",57%
10,"O=C(/C=C/c1ccc(F)cc1)NNC(=S)Nc1ccccc1 [Compound 3c, (E)-2-(3-(4-Fluorophenyl)acryloyl)-N-phenylhydrazine-1-carbothioamide]",91%

# System: Valosine-containing protein
# Experiment: not given
# Design: method as in PMID 23245311
# Settings: from the literature; cited from earlier work
row,Structure (SMILES),Valosine-containing protein inhibition
1,"Sc1nnc(/C=C/c2ccc(Br)cc2)n1-c1ccccc1 [Compound 4d, (E)-5-(4-Bromostyryl)-4-phenyl-4H-1,2,4-triazole-3-thiol]",allosteric Valosine-containing protein inhibitor
